Laboratory results reported in paper PMC10317887, “Hypoglycaemia frequency and physiological response after double or triple doses of once-weekly insulin icodec vs once-daily insulin glargine U100 in type 2 diabetes: a randomised crossover trial” (Diabetologia, 2023).
Like-named read-outs stand apart in the source and are kept apart here.

Experiments:
[1] = test system: individuals with type 2 diabetes; experiment: Cognitive function: digit symbol substitution test (DSST); details: for Change in DSST at PG3.0 mmol/l, least-squares mean / Change in DSST at PGnadir, least-squares mean: change from baseline, subgroup
Method: Hypoglycaemic response assessments were conducted at predefined PG levels during hypoglycaemia development and recovery (Fig. 1b). Hypoglycaemic symptoms score (HSS), hypoglycaemia awareness, counterregulatory hormones, vital signs and cognitive function tests were assessed at baseline (PG5.5 mmol/l), during hypoglycaemia development (PG3.9 mmol/l and PG3.0 mmol/l) and at PGnadir.
Cognitive function was assessed using the trail making B (TMB) test, the digit symbol substitution test (DSST) and the four-choice reaction time (4CRT) test. In the TMB test from the Halstead Reitan Neuropsychological Battery [16, 17], the participant connects 25 circles distributed on a chart in the correct sequence as quickly as possible. The circles contain a number (1–13) or a letter (A–L), and the correct sequence consists of alternating numbers and letters (i.e. 1–A–2–B–3 etc). The test result is the time needed to complete the task correctly. In the DSST, which is a subtest of the Wechsler Adult Intelligence Scale - Revised [18], nine digits are represented by nine different symbols. During 90 s, the participant is requested to write down the appropriate symbol for as many numbers as possible in a given array. The test result is the number of correct responses. […] In 100 cycles, the participant responds by pressing the corresponding position on a keypad. The test result has two components: percentage of correct answers and the mean response time.
Changes in HSS, vital signs and cognitive function tests from baseline (PG5.5 mmol/l) to PG3.0 mmol/l and to PGnadir were compared between insulin products at each of the two dose levels using the same approach as described for PGnadir, except that no logarithmic transformation was done and that the baseline value was included as a covariate. Least-squares means, treatment difference and 95% CI were derived.

[2] = test system: individuals with type 2 diabetes; experiment: Safety: adverse events and non-induced hypoglycaemic episodes during treatment periods
Description: Safety assessments during the trial included adverse events (AEs), hypoglycaemic episodes (other than those induced), vital signs (other than those assessed during hypoglycaemia induction), electrocardiograms, physical examinations and clinical laboratory assessments (haematology, biochemistry and urinalysis).
AEs and hypoglycaemic episodes (other than those induced) during the treatment periods were summarised. The end of each treatment period was defined as 7 days after the last icodec dose and 2 days after the last glargine U100 dose. […] Hypoglycaemic episodes were classified as level 1 (PG <3.9 mmol/l and ≥3.0 mmol/l), level 2 (PG <3.0 mmol/l) and level 3 (severe cognitive impairment requiring assistance for recovery) [20].

[3] = test system: individuals with type 2 diabetes; format: in vivo, human; details: for Mean PGnadir, treatment ratio (95% CI) icodec vs glargine U100 / Mean PGnadir, estimated geometric mean: all participants; for Time to recovery from PGnadir to PG5.5 mmol/l, estimated geometric mean: constant i.v. glucose 5.5 mg kg^−1 min^−1; for Time to recovery from PGnadir to PG5.5 mmol/l, estimated geometric mean / Glucose needed from PGnadir to PG5.5 mmol/l, estimated geometric mean: individuals with PG <3.3 mmol/l at initiation of recovery; for Time to decline from PG5.5 mmol/l to PG3.9 mmol/l, estimated geometric mean: individuals with PG decline to <3.0 mmol/l and/or hypoglycaemia symptoms; for Time to decline from PG5.5 mmol/l to PG3.0 mmol/l, estimated geometric mean: individuals with PG decline to <3.0 mmol/l; for Mean PGnadir in the subgroup analysis: subgroup PGnadir <3.0 mmol/l and/or symptoms
Method: During the two treatment periods, participants received once-weekly icodec for 6 weeks or once-daily glargine U100 for 11 days in randomised order. […] Treatment periods were separated by 35–49 days of washout following icodec and 4–11 days of washout following glargine U100. Icodec (4200 nmol/ml; Novo Nordisk, Bagsværd, Denmark) was administered s.c. in the left thigh at 20:00 hours by qualified site staff using a NovoPen 4 pen injector (Novo Nordisk). […] At the start of week 1, a one-time additional 100% icodec dose was administered to accelerate time to steady state, followed by a normal dose at week 2, a double dose at week 3 (prior to hypoglycaemia induction), no dose at week 4 (due to the double dose given the week before), a normal dose at week 5, and a triple dose at week 6 (prior to hypoglycaemia induction). Insulin glargine U100 (100 U/ml [600 nmol/ml]; Sanofi, Paris, France) was administered s.c. in the right thigh at 09:00 hours by qualified site staff using a SoloStar pen injector (Sanofi). A normal dose of once-daily glargine U100 was established during run in. Glargine U100 was administered at a normal dose for 3 days followed by a double dose on day 4 (prior to hypoglycaemia induction), no dose on day 5 (due to the double dose given the day before), then a normal dose for 5 days, and a triple dose on day 11 (prior to hypoglycaemia induction).
Hypoglycaemia induction was carried out during weeks 3 (double dose) and 6 (triple dose) for icodec and on days 4 (double dose) and 11 (triple dose) for glargine U100 while at steady state. To initiate hypoglycaemia induction, participants should not have experienced hypoglycaemia (PG <3.9 mmol/l) within 24 h or have any relevant medical condition that could confound the outcomes or pose unacceptable risk to the participant. Hypoglycaemia induction (Fig. 1b) was initiated at 16:00 hours 2 days after double/triple icodec dosing (44 h post dose) and on the day of double/triple glargine U100 dosing (7 h post dose). These timings were selected since they approximated the expected time of maximum glucose-lowering effect for both insulin products based on pharmacokinetic/pharmacodynamic modelling performed prior to the trial. For 7.5 h prior to hypoglycaemia induction, PG was kept at 5.5 mmol/l by variable i.v. infusion of glucose (20% wt/vol) or human soluble insulin (100 U/ml in 99.6 ml saline [154 mmol/l NaCl]). PG was measured by a Super GL2 Glucose Analyzer (Dr. Müller Gerätebau, Freital, Germany). Insulin infusion was terminated 60 min prior to hypoglycaemia induction at the latest. PG was maintained at 5.5 mmol/l±20% from 60 min to 30 min prior to hypoglycaemia induction and at 5.5 mmol/l±10% during the last 30 min prior to hypoglycaemia induction. Hypoglycaemia induction was initiated by terminating glucose infusion, thereby allowing PG to decline towards the minimum (nadir) PG target level of no less than 2.5 mmol/l. The handling of alternative scenarios, e.g. PGnadir >2.5 mmol/l, slow PG decline towards hypoglycaemia or slow recovery from hypoglycaemia, is described in electronic supplementary material (ESM) Methods. The investigator recorded if the PGnadir was <3.0 mmol/l or ≥3.0 mmol/l with hypoglycaemic symptoms. The PGnadir level was maintained for 15 min by variable i.v. glucose as needed. Subsequently, euglycaemia was restored by constant i.v. glucose (5.5 mg kg^−1 min^−1) until PG was 5.5 mmol/l, which was maintained until the next morning (between 07:00 hours and 09:00 hours) by variable i.v. glucose. During hypoglycaemia induction, participants remained fasted (except for water ad libitum) and stayed in a supine or semi-supine position (except when cognitive tests were performed). Participants stayed at the clinical site for at least 12 h following each hypoglycaemia induction experiment. […]

[4] = triple dose, n=20 icodec, 28 glargine U100
[5] = treatment periods, outside hypoglycaemia induction experiments
[6] = double dose, n=15 icodec, 13 glargine U100
[7] = triple dose, n=18 icodec, 22 glargine U100

Q: For insulin icodec, which “Change in DSST at PG3.0 mmol/l, treatment difference (95% CI) icodec vs glargine U100” value ([1]; double dose) is on record?
A: 1.2 (-3.1, 5.5)

Q: What about the “Change in DSST at PGnadir, treatment difference (95% CI) icodec vs glargine U100” value ([1]; double dose) of the same substance?
A: 0.6 (-3.7, 4.9)

Q: And the “Change in DSST at PG3.0 mmol/l, least-squares mean” value ([1]; double dose, n=16 icodec, 15 glargine U100)?
A: -5.4 number of correct responses

Q: And the “Change in DSST at PGnadir, least-squares mean” value ([1]; double dose, n=18 icodec, 18 glargine U100)?
A: -6.7 number of correct responses

Q: What about the “Change in DSST at PG3.0 mmol/l, treatment difference (95% CI) icodec vs glargine U100” value ([1]; triple dose) of the same substance?
A: 0.5 (-3.3, 4.3)

Q: What about the “Change in DSST at PGnadir, treatment difference (95% CI) icodec vs glargine U100” value ([1]; triple dose) of the same substance?
A: -2.2 (-6.8, 2.5)

Q: What about the “Change in DSST at PGnadir, least-squares mean” value ([1]; triple dose, n=19 icodec, 29 glargine U100) of the same substance?
A: -9.1 number of correct responses

Q: And the “Change in DSST at PG3.0 mmol/l, least-squares mean” value [1, 4]?
A: -5.5 number of correct responses

Q: And the “Number of level 2 hypoglycaemic episodes” value ([2]; from end of hypoglycaemia induction experiment until 1 week after triple dose)?
A: six episodes in five individuals

Q: And the “Number of level 2 hypoglycaemic episodes” value ([2]; from end of hypoglycaemia induction experiment until 2 weeks after double dose)?
A: four episodes in three individuals

Q: And the “Duration of level 2 hypoglycaemic episodes, mean±SD” value ([2]; over both doses, treatment periods, outside induction)?
A: 25.3 ± 8.5 min

Q: What about the AE rate ([2]; treatment periods) of the same substance?
A: 10.9 AEs per participant-year of exposure

Q: What about the “Rate of clinically significant hypoglycaemic episodes (level 2, PG <3.0 mmol/l)” value [2, 5] of the same substance?
A: 3.4 episodes per participant-year of exposure

Q: What about the “Severe hypoglycaemic episodes (level 3)” value [2, 5] of the same substance?
A: no severe hypoglycaemic episodes

Q: What about the “Number of AEs reported” value ([2]; treatment periods, exposure 4.8 participant-years icodec, 1.6 glargine U100) of the same substance?
A: 52 AEs

Q: What about the “Time to full recovery from hypoglycaemia” value ([3]; constant i.v. glucose infusion at 5.5 mg kg^−1 min^−1, double and triple doses) of the same substance?
A: ≤ 30 min

Q: And the “Glucose needed from PGnadir to PG5.5 mmol/l, treatment ratio (95% CI) icodec vs glargine U100” value ([3]; double dose)?
A: 1.27 (1.05, 1.53)

Q: And the “Time to decline from PG5.5 mmol/l to PG3.0 mmol/l, treatment ratio (95% CI) icodec vs glargine U100” value ([3]; double dose)?
A: 0.64 (0.31, 1.33)

Q: What about the “Time to decline from PG5.5 mmol/l to PG3.9 mmol/l, treatment ratio (95% CI) icodec vs glargine U100” value ([3]; double dose) of the same substance?
A: 0.62 (0.48, 0.78)

Q: What about the “Time to recovery from PGnadir to PG5.5 mmol/l, treatment ratio (95% CI) icodec vs glargine U100” value ([3]; double dose) of the same substance?
A: 1.34 (1.16, 1.55)

Q: What about the “Mean PGnadir, treatment ratio (95% CI) icodec vs glargine U100” value ([3]; double dose) of the same substance?
A: 0.97 (0.94, 1.00)

Q: And the “Mean PGnadir, estimated geometric mean” value ([3]; double dose, n=43 icodec, 42 glargine U100)?
A: 3.2 mmol/L

Q: What about the “Time to recovery from PGnadir to PG5.5 mmol/l, estimated geometric mean” value [3, 6] of the same substance?
A: 28.3 min

Q: And the “Glucose needed from PGnadir to PG5.5 mmol/l, estimated geometric mean” value [3, 6]?
A: 141 mg/kg

Q: What about the “Time to decline from PG5.5 mmol/l to PG3.9 mmol/l, estimated geometric mean” value ([3]; double dose, n=20 icodec, 19 glargine U100) of the same substance?
A: 0.7 h

Q: What about the “Time to decline from PG5.5 mmol/l to PG3.0 mmol/l, estimated geometric mean” value ([3]; double dose, n=17 icodec, 15 glargine U100) of the same substance?
A: 2.9 h

Q: And the “Mean PGnadir in the subgroup analysis, treatment ratio [95% CI] icodec vs glargine U100” value ([3]; double dose)?
A: 1.01

Q: And the “Mean PGnadir in the subgroup analysis” value ([3]; double dose)?
A: 2.9 mmol/L

Q: And the “Glucose needed from PGnadir to PG5.5 mmol/l, treatment ratio (95% CI) icodec vs glargine U100” value ([3]; triple dose)?
A: 1.02 (0.83, 1.24)

Q: What about the “Time to decline from PG5.5 mmol/l to PG3.0 mmol/l, treatment ratio (95% CI) icodec vs glargine U100” value ([3]; triple dose) of the same substance?
A: 1.05 (0.68, 1.64)

Q: And the “Time to decline from PG5.5 mmol/l to PG3.9 mmol/l, treatment ratio (95% CI) icodec vs glargine U100” value ([3]; triple dose)?
A: 0.90 (0.78, 1.04)

Q: What about the “Time to recovery from PGnadir to PG5.5 mmol/l, treatment ratio (95% CI) icodec vs glargine U100” value ([3]; triple dose) of the same substance?
A: 1.02 (0.82, 1.28)

Q: And the “Mean PGnadir, treatment ratio (95% CI) icodec vs glargine U100” value ([3]; triple dose)?
A: 1.07 (1.04, 1.11)

Q: What about the “Mean PGnadir, estimated geometric mean” value ([3]; triple dose, n=38 icodec, 40 glargine U100) of the same substance?
A: 3.1 mmol/L

Q: What about the “Time to recovery from PGnadir to PG5.5 mmol/l, estimated geometric mean” value [3, 7] of the same substance?
A: 23.8 min

Q: And the “Glucose needed from PGnadir to PG5.5 mmol/l, estimated geometric mean” value [3, 7]?
A: 116 mg/kg

Q: What about the “Time to decline from PG5.5 mmol/l to PG3.9 mmol/l, estimated geometric mean” value ([3]; triple dose, n=20 icodec, 29 glargine U100) of the same substance?
A: 0.7 h

Q: And the “Time to decline from PG5.5 mmol/l to PG3.0 mmol/l, estimated geometric mean” value [3, 4]?
A: 2.4 h

Q: And the “Mean PGnadir in the subgroup analysis, treatment ratio [95% CI] icodec vs glargine U100” value ([3]; triple dose)?
A: 1.05

Q: What about the “Mean PGnadir in the subgroup analysis” value ([3]; triple dose) of the same substance?
A: 2.9 mmol/L
